This data set is described as follows: Inhibitor release study by HPLC. Type of data set: physicochemical. Here is the method: Inhibitor loading efficiency and release studies: All supernatants after initial loading of inhibitors were stored at −20° C. Supernatants were analyzed by reverse phase high performance liquid chromatography (HPLC). Inhibitor release studies were done sampling particle suspension inhibitor release up to 6 days. Briefly, drug release solution was prepared using 1 mL of 1×PBS, and 1 mL of 1% bovine serum albumin. The lyophilized pSi were suspended at a concentration of 3 mg/mL of drug release solution and incubated at 37° C. with constant stirring. At 1, 3, 5, 12 and every 24 hours thereafter, suspensions were centrifuged and 1 ml drug release solution was taken and replaced with fresh drug release solution. Agilent Zorbax Eclipse Plus C18 (100×4.6 mm, 3.5 um pore particle size) column was used for analysis. Samples flowed through the column at 1.0 ml/min and with a mobile phase consisting of acetonitrile in 0.1% trifluoroacedic acid: H2O in 0.1% trifluoroacedic acid (V/V). Samples were analyzed at 281 nm.

The text below walks through data of US20200392462A1, “METHODS OF FORMING CARDIOMYOCYES” (THE REGENTS OF THE UNIVERSITY OF COLORADO, A BODY CORPORATE, priority 2018, published 2020).

Structures are written as SMILES.

As for `Cc1c[nH]c(-c2cnc(NCCNc3ccc(C#N)cn3)nc2-c2ccc(Cl)cc2Cl)n1` [CHIR99021], the cumulative release (from pSi, at 144 hours) was around 100% and the cumulative release (from pSi, within the first 24 hours, 37° C., PBS/BSA) was 81.1±5.3%.
The compound `Cc1ccc2nc(NC(=O)CSc3nc4c(c(=O)n3-c3ccccc3)SCC4)sc2c1` [IWP2] had a cumulative release (from pSi coated with 5 wt % PLGA 50:50, after 144 hours) of 56.4±7.2%; a cumulative release (from pSi coated with 5 wt % PLGA 50:50, end of 72 hours) of 40.2±9.1%; a cumulative release (from pSi coated with 5 wt % PLGA 50:50, within the first 48 hours) of 27.8±7.2%.
